Data: PubChem BioAssay AID1963841 (Molecular Pharmacology Branch, DTP, NCI, 2024)

System: 439559-082-T-J2-PDC spheroid viability
Assay: Anticancer human tumor 439559-082-T-J2-PDC patient-derived colon adenocarcinoma cell line growth inhibition [POLQ]
Conditions: spheroids with HUVEC and MSC; for IC50: curve of first compound; for viability, T/C: stronger effect = lower value
Summary of the method: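 Complex spheroid viability model combining PDC tumour cells with endothelial (HUVEC) and MSC stromal cells. Novobiocin, ART-558 or RP6685 were tested singly and in combination with standard and investigational anticancer drugs. Each was titrated in half-log steps from near clinical Cmax, or from 10 microM where Cmax was unknown.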

[1] = second compound 0.0316 µM, first compound 0.0316 µM
[2] = second compound 0.0316 µM, first compound 0.1 µM
[3] = second compound 0.0316 µM, first compound 0.316 µM
[4] = second compound 0.0316 µM, first compound 1 µM
[5] = second compound 0.1 µM, first compound 0.0316 µM
[6] = second compound 0.1 µM, first compound 0.1 µM
[7] = second compound 0.1 µM, first compound 0.316 µM
[8] = second compound 0.1 µM, first compound 1 µM
[9] = second compound 0.316 µM, first compound 0.0316 µM
[10] = second compound 0.316 µM, first compound 0.1 µM
[11] = second compound 0.316 µM, first compound 0.316 µM
[12] = second compound 0.316 µM, first compound 1 µM
[13] = second compound 1 µM, first compound 0.0316 µM
[14] = second compound 1 µM, first compound 0.1 µM
[15] = second compound 1 µM, first compound 0.316 µM
[16] = second compound 1 µM, first compound 1 µM
[17] = second compound 3.16 µM, first compound 0.0316 µM
[18] = second compound 3.16 µM, first compound 0.1 µM
[19] = second compound 3.16 µM, first compound 0.316 µM
[20] = second compound 3.16 µM, first compound 1 µM
[21] = second compound 10 µM, first compound 0.0316 µM
[22] = second compound 10 µM, first compound 0.1 µM
[23] = second compound 10 µM, first compound 0.316 µM
[24] = second compound 10 µM, first compound 1 µM
[25] = second compound 0.0316 µM, first compound 0.00316 µM
[26] = second compound 0.0316 µM, first compound 0.01 µM
[27] = second compound 0.1 µM, first compound 0.00316 µM
[28] = second compound 0.1 µM, first compound 0.01 µM
[29] = second compound 0.316 µM, first compound 0.00316 µM
[30] = second compound 0.316 µM, first compound 0.01 µM
[31] = second compound 1 µM, first compound 0.00316 µM
[32] = second compound 1 µM, first compound 0.01 µM
[33] = second compound 3.16 µM, first compound 0.00316 µM
[34] = second compound 3.16 µM, first compound 0.01 µM
[35] = second compound 10 µM, first compound 0.00316 µM
[36] = second compound 10 µM, first compound 0.01 µM
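Note: spheroids exposed to compounds for seven days before readout.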
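Throughout, for viability, T/C: 100% = DMSO vehicle control viability.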

COc1ccc([C@@H](O)c2cc(-c3ncnc4cc(N5CCOCC5)ccc34)c(F)cc2Cl)nn1 + Cc1cccc(N(C)C(=O)C2C(O)CCN2c2nc(C)cc(C(F)(F)F)c2C#N)c1
IC50 (second compound 0.0316 µM): > 10000 nM
IC50 (second compound 0.1 µM): > 10000 nM
IC50 (second compound 0.316 µM): > 10000 nM
IC50 (second compound 1 µM): > 10000 nM
IC50 (second compound 3.16 µM): > 10000 nM
IC50 (second compound 10 µM): > 10000 nM
viability, T/C [1]: 95.2%
viability, T/C [2]: 95.5%
viability, T/C [3]: 95.9%
viability, T/C [4]: 94.9%
viability, T/C (second compound 0.0316 µM, first compound 3.16 µM): 93.4%
viability, T/C (second compound 0.0316 µM, first compound 10 µM): 81.5%
viability, T/C [5]: 101%
viability, T/C [6]: 99.3%
viability, T/C [7]: 94.7%
viability, T/C [8]: 92.9%
viability, T/C (second compound 0.1 µM, first compound 3.16 µM): 92%
viability, T/C (second compound 0.1 µM, first compound 10 µM): 80.1%
viability, T/C [9]: 105%
viability, T/C [10]: 111%
viability, T/C [11]: 92.1%
viability, T/C [12]: 99.3%
viability, T/C (second compound 0.316 µM, first compound 3.16 µM): 87.4%
viability, T/C (second compound 0.316 µM, first compound 10 µM): 80.9%
viability, T/C [13]: 108%
viability, T/C [14]: 101%
viability, T/C [15]: 91.6%
viability, T/C [16]: 93.4%
viability, T/C (second compound 1 µM, first compound 3.16 µM): 85.5%
viability, T/C (second compound 1 µM, first compound 10 µM): 83%
viability, T/C [17]: 95.1%
viability, T/C [18]: 92.3%
viability, T/C [19]: 97.4%
viability, T/C [20]: 95.6%
viability, T/C (second compound 3.16 µM, first compound 3.16 µM): 78.1%
viability, T/C (second compound 3.16 µM, first compound 10 µM): 77.1%
viability, T/C [21]: 94.8%
viability, T/C [22]: 94.7%
viability, T/C [23]: 93%
viability, T/C [24]: 83.5%
viability, T/C (second compound 10 µM, first compound 3.16 µM): 83.6%
viability, T/C (second compound 10 µM, first compound 10 µM): 78.3%

COc1cccc(OCCCN)c1-c1cc(Nc2cnc(C#N)cn2)n[nH]1 + Cc1cccc(N(C)C(=O)C2C(O)CCN2c2nc(C)cc(C(F)(F)F)c2C#N)c1
IC50 (second compound 0.0316 µM): 274 nM
IC50 (second compound 0.1 µM): 319 nM
IC50 (second compound 0.316 µM): 299 nM
IC50 (second compound 1 µM): 398 nM
IC50 (second compound 3.16 µM): 291 nM
IC50 (second compound 10 µM): 150 nM
viability, T/C [25]: 99.3%
viability, T/C [26]: 99.7%
viability, T/C [1]: 71%
viability, T/C [2]: 77.9%
viability, T/C [3]: 44.8%
viability, T/C [4]: 18.5%
viability, T/C [27]: 100%
viability, T/C [28]: 74.7%
viability, T/C [5]: 71.1%
viability, T/C [6]: 78.1%
viability, T/C [7]: 49.5%
viability, T/C [8]: 19.9%
viability, T/C [29]: 104%
viability, T/C [30]: 83.8%
viability, T/C [9]: 84.8%
viability, T/C [10]: 68.7%
viability, T/C [11]: 51%
viability, T/C [12]: 19.8%
viability, T/C [31]: 110%
viability, T/C [32]: 94.2%
viability, T/C [13]: 82.5%
viability, T/C [14]: 77.5%
viability, T/C [15]: 64.2%
viability, T/C [16]: 20.9%
viability, T/C [33]: 87.6%
viability, T/C [34]: 102%
viability, T/C [17]: 81.7%
viability, T/C [18]: 74.9%
viability, T/C [19]: 48.1%
viability, T/C [20]: 19.4%
viability, T/C [35]: 101%
viability, T/C [36]: 86.9%
viability, T/C [21]: 94.5%
viability, T/C [22]: 63.2%
viability, T/C [23]: 25.1%
viability, T/C [24]: 16.2%

Cn1ncnc1[C@H]1c2n[nH]c(=O)c3cc(F)cc(c23)N[C@@H]1c1ccc(F)cc1 + Cc1cccc(N(C)C(=O)C2C(O)CCN2c2nc(C)cc(C(F)(F)F)c2C#N)c1
IC50 (second compound 0.0316 µM): > 100 nM
IC50 (second compound 0.1 µM): > 100 nM
IC50 (second compound 0.316 µM): > 100 nM
IC50 (second compound 1 µM): > 100 nM
IC50 (second compound 3.16 µM): > 100 nM
IC50 (second compound 10 µM): > 100 nM
viability, T/C (second compound 0.0316 µM, first compound 0.000316 µM): 97.7%
viability, T/C (second compound 0.0316 µM, first compound 0.001 µM): 103%
viability, T/C [25]: 97.5%
viability, T/C [26]: 99.2%
viability, T/C [1]: 90.8%
viability, T/C [2]: 93.4%
viability, T/C (second compound 0.1 µM, first compound 0.000316 µM): 108%
viability, T/C (second compound 0.1 µM, first compound 0.001 µM): 108%
viability, T/C [27]: 96%
viability, T/C [28]: 102%
viability, T/C [5]: 94.5%
viability, T/C [6]: 86.3%
viability, T/C (second compound 0.316 µM, first compound 0.000316 µM): 105%
viability, T/C (second compound 0.316 µM, first compound 0.001 µM): 107%
viability, T/C [29]: 99.6%
viability, T/C [30]: 99.5%
viability, T/C [9]: 92.7%
viability, T/C [10]: 93.4%
viability, T/C (second compound 1 µM, first compound 0.000316 µM): 110%
viability, T/C (second compound 1 µM, first compound 0.001 µM): 96.5%
viability, T/C [31]: 93.1%
viability, T/C [32]: 92.8%
viability, T/C [13]: 99.9%
viability, T/C [14]: 96.8%
viability, T/C (second compound 3.16 µM, first compound 0.000316 µM): 93%
viability, T/C (second compound 3.16 µM, first compound 0.001 µM): 103%
viability, T/C [33]: 103%
viability, T/C [34]: 91.9%
viability, T/C [17]: 101%
viability, T/C [18]: 87.5%
viability, T/C (second compound 10 µM, first compound 0.000316 µM): 95.7%
viability, T/C (second compound 10 µM, first compound 0.001 µM): 98.1%
viability, T/C [35]: 95.4%
viability, T/C [36]: 86.2%
viability, T/C [21]: 91.5%
viability, T/C [22]: 85.2%
